Assays:
[1] = molecular target: T1, human α7 nicotinic acetylcholine receptor (Homo sapiens, UniProt P36544); experiment: Inhibition of acetylcholine induced current in Xenopus Laevis oocytes overexpressing α7 nAChR; assay type: cell-based
T1 construct: expressed in transfected cells; host or cells: Xenopus laevis oocytes injected with cDNA
Method: Evaluation of the antagonist activity of the enantiomers of deuterated bupropion at α7 and α4β2 nicotinic acetylcholine receptors (nAChRs) was carried out in Xenopus Laevis oocytes prepared and injected with the corresponding cDNA using standard procedures. Receptor expression was examined two days after injection. For α4β2 nAChR, the two cDNAs were injected in equimolar amounts. All experiments were performed at 18° C. and cells were superfused with OR2 medium containing 82.5 mM sodium chloride, 2.5 mM potassium chloride, 5 mM HEPES, 1.8 mM calcium chloride, and 1 mM magnesium chloride at pH 7.4. A two-electrode voltage-clamp configuration was used to record currents evoked by acetylcholine addition. Data acquisition and analysis was performed in Matlab (Mathworks, Inc., Natick, Mass.). Statistical analysis was executed in Excel (Microsoft Corp, Redmond, Wash.) or Matlab (Mathwork, Inc., Natick, Mass.). All experiments were carried out using at least 3 oocytes.

female CD-1 mice = experiment: Behavioral effects after intraperitoneal injection in female CD-1 mice; conditions: 2 h observation
Method: Individual body weights were used for dose volume calculations. Equal numbers of animals per group were tested each day. […] Animals were also observed 24 h post-dose. During the 2 h observation period, presence or absence of ataxic gait, paralysis, hyperactivity, hypoactivity, and catatonic episodes was recorded. Number, time of onset, duration, and intensity of convulsions were also recorded. Duration of each convulsion was graded as short (1 to 10 s), medium (11 to 30 s), or long (≧31 s). Intensity of convulsion was similarly graded as mild, moderate, or severe. Any animal showing a single episode of severe seizure longer than 1 min or experiencing greater than 40 consecutive episodes of severe convulsions over 1 h or less was euthanized.

[2] = molecular target: T2, norepinephrine transporter (Rattus norvegicus, UniProt Q63380); experiment: Inhibition of norepinephrine uptake in rat hypothalamus synaptosomes; assay type: biochemical
T2 construct: tissue Cerep, France (assay provider); host or cells: rat hypothalamus synaptosomes
T2 sequence (Q63380 1-617): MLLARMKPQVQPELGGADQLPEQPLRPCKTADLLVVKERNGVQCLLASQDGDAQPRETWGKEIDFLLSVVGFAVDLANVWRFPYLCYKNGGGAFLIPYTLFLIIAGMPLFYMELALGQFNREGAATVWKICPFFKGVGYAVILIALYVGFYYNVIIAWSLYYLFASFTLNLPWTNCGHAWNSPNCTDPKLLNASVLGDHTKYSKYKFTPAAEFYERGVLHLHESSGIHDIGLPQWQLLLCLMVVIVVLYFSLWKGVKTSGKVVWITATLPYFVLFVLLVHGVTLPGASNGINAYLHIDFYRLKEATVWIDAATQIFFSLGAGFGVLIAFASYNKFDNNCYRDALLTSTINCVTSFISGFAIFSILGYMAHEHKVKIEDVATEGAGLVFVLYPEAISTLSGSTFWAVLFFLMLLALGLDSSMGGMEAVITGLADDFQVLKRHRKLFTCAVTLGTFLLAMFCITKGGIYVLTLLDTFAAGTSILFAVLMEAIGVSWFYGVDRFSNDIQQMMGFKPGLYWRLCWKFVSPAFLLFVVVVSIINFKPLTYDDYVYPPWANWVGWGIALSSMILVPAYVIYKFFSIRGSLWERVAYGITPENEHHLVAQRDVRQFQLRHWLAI
Method: The inhibitory activity of the (S)- and (R)-enantiomers of 1-(m-chlorophenyl)-2-(tert-butylamino)-(2-^2H)-propan-1-one was evaluated in the rat synaptosome assay (Cerep, France). Briefly, compounds were incubated for 20 min at 37° C. with rat hypothalamus synaptosomes in the presence of tritiated norepinephrine (NE). The uptake of radiolabeled NE by the synaptosomes was measured as a function of compound concentration. Inhibition of the transporter is observed when the amount of radioactivity in the synaptosomes is lower in the presence of test article. Analysis of the data was performed using the log(inhibitor) vs. response—variable slope (four parameters) model in GraphPad Prism 6.0 (GraphPad Software, Inc., La Jolla, Calif.), where response is % inhibition (% inhibition=100 [(NE uptake)control−(NE uptake)compound)]/(NE uptake)vehicle). Both inhibition curves were characterized by Hill slopes close to 1.

in vivo = conditions: male, C57BL/6, mouse, po; for half-life: 75 mg/kg
Method: As appreciated, h-rac-bupropion is a 1:1 mixture of the two protonated enantiomers h-S-bupropion and h-R-bupropion. […] Animals were euthanized at preset time points (n=3 per time point). […] Quantitative data was analyzed in Excel (Microsoft Corp, Redmond, Wash.) using the PKSolver add-in (version 2, as described by Zhang et al. in Comput Methods Programs Biomed 99 (2010) 306-314) to determine PK parameters.

dopamine transporter = molecular target: T3, dopamine transporter (Rattus norvegicus, UniProt P23977); experiment: Inhibition of dopamine uptake in rat striatum synaptosomes; assay type: biochemical
T3 construct: tissue Cerep, France (assay provider); host or cells: rat striatum synaptosomes
T3 sequence (P23977 whole entry): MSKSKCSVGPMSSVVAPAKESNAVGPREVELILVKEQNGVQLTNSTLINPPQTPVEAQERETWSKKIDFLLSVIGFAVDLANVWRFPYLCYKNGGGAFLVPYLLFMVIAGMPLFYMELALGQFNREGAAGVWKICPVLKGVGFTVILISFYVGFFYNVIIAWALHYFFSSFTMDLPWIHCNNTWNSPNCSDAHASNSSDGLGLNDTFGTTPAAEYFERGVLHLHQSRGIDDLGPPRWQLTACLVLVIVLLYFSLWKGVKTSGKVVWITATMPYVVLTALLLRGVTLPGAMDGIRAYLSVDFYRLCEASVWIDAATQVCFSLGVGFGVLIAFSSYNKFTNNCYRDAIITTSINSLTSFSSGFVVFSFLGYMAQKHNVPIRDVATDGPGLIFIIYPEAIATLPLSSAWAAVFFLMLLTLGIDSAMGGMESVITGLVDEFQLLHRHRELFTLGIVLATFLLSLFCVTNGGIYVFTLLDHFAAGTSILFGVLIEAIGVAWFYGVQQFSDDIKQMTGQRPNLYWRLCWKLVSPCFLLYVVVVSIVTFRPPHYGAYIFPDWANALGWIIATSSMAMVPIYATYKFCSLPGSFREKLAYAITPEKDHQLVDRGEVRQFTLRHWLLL
Method: The inhibitory activity of the (S)- and (R)-enantiomers of 1-(m-chlorophenyl)-2-(tert-butylamino)-(2-^2H)-propan-1-one was evaluated in the rat synaptosome assay (Cerep, France). Briefly, each compound was incubated for 15 min at 37° C. with rat striatum synaptosomes in the presence of tritiated dopamine (DA). The uptake of radiolabeled DA by the synaptosomes was measured by scintillation counting as a function of compound concentration. Inhibition of the dopamine transporter is observed when the amount of radioactivity in the synaptosomes is lower in the presence of the test article than in its absence. Analysis of the data was performed using the log(inhibitor) vs. response—variable slope (four parameters) model in GraphPad Prism 6.0 (GraphPad Software, Inc., La Jolla, Calif.), where response is % inhibition (% inhibition=100 [(DA uptake)control−(DA uptake)compound)]/(DA uptake)vehicle). Both inhibition curves were characterized by Hill slopes close to 1.

T1 sequence (P36544 23-502): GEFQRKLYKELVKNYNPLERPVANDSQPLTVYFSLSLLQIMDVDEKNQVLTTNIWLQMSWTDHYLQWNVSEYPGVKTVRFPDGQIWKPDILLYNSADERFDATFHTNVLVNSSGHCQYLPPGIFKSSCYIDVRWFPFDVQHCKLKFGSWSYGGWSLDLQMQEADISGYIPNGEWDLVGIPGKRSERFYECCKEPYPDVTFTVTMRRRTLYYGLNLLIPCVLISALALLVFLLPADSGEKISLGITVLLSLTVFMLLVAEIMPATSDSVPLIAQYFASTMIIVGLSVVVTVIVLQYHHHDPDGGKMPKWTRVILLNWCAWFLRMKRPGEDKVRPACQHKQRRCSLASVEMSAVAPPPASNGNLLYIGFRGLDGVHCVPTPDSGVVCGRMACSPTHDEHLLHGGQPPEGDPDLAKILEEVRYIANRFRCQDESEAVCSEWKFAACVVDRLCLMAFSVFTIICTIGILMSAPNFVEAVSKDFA

Compound | IC50 [1] [µM] | mice per dose group experiencing ataxia (female CD-1 mice; 100 mg/kg i.p.) [%] | mice per dose group experiencing catatonia (female CD-1 mice; 100 mg/kg i.p.) [%] | mice per dose group experiencing convulsions (female CD-1 mice; 100 mg/kg i.p.) [%] | mice per dose group experiencing hyperactivity (female CD-1 mice; 100 mg/kg i.p.) [%] | mice per dose group experiencing hypoactivity (female CD-1 mice; 100 mg/kg i.p.) [%] | mice per dose group experiencing ataxia (female CD-1 mice; 125 mg/kg i.p.) [%] | mice per dose group experiencing catatonia (female CD-1 mice; 125 mg/kg i.p.) [%] | mice per dose group experiencing convulsions (female CD-1 mice; 125 mg/kg i.p.) [%] | mice per dose group experiencing hyperactivity (female CD-1 mice; 125 mg/kg i.p.) [%] | mice per dose group experiencing hypoactivity (female CD-1 mice; 125 mg/kg i.p.) [%] | mice per dose group experiencing ataxia (female CD-1 mice; 150 mg/kg i.p.) [%] | mice per dose group experiencing catatonia (female CD-1 mice; 150 mg/kg i.p.) [%] | mice per dose group experiencing convulsions (female CD-1 mice; 150 mg/kg i.p.) [%] | mice per dose group experiencing hyperactivity (female CD-1 mice; 150 mg/kg i.p.) [%] | mice per dose group experiencing hypoactivity (female CD-1 mice; 150 mg/kg i.p.) [%] | AUC0-t of hR (h-R-bupropion) in plasma (in vivo) [ng·h/mL] | AUC0-t of hRR (h-RR-hydroxybupropion) in plasma (in vivo) [ng·h/mL] | AUC0-t of hS (h-S-bupropion) in plasma (in vivo) [ng·h/mL] | AUC0-t of hSS (h-SS-hydroxybupropion) in plasma (in vivo) [ng·h/mL] | other results
[2H][C@](C)(NC(C)(C)C)C(=O)c1cccc(Cl)c1 [d-R-bupropion, (R)-1-(m-chlorophenyl)-2-(tert-butylamino)-(2-^2H)-propan-1-one] | 28.7 | 56 | 78 | 33 | 0 | 100 | 80 | 90 | 60 | 0 | 100 | 90 | 100 | 100 | 0 | 100 | 496 | 1685 | 340 | 169 | IC50 [2]: 5.76 µM; AUC0-t of dRR (d-RR-hydroxybupropion) in plasma (in vivo): 22059 ng·h/mL; half-life (in vivo): 1.7 h; IC50 (dopamine transporter): 4.2 µM
[2H][C@@](C)(NC(C)(C)C)C(=O)c1cccc(Cl)c1 [d-S-bupropion, (S)-1-(m-chlorophenyl)-2-(tert-butylamino)-(2-^2H)-propan-1-one] | 43.2 | 70 | 10 | 40 | 100 | 0 | 89 | 44 | 70 | 78 | 0 | 100 | 80 | 100 | 20 | 80 | 269 | 1129 | 469 | 395 | IC50 [2]: 2.3 µM; AUC0-t of dSS (d-SS-hydroxybupropion) in plasma (in vivo): 6545 ng·h/mL; AUC(0-t) (in vivo): 4760 ng·h/mL; half-life (in vivo): 0.9 h; IC50 (dopamine transporter): 0.42 µM
CC(NC(C)(C)C)C(=O)c1cccc(Cl)c1 (racemic) [h-rac-bupropion, racemic-1-(m-chlorophenyl)-2-(tert-butylamino)-propan-1-one, reference compound] |  |  |  |  |  |  |  |  |  |  |  |  |  |  |  |  | 6798 | 18393 | 5265 | 6591 | 

From US9732031B2 (priority 2013, dated 2017)
